Laboratory results published in patent US20240279236A1, “COMPOUNDS AND METHODS OF TREATING TUBERCULOSIS” (Fimbrion Therapeutics, Inc., priority 2021, published 2024).

What follows are compounds tested on WT Mtb Erdman strain (assay: Microplate Alamar Blue Assay (MABA), Mtb growth inhibition). Details: Mycobacterium tuberculosis, ERDMAN, 168 h, Middlebrook 7H9 media, 7 days at 37° C. in 5% CO2.
Type: cell-based, Mycobacterium tuberculosis

| Structure (SMILES) | IC50 |
| --- | --- |
| COc1ccccc1CCCNc1nc(C(F)(F)F)nc2sc(C)cc12 [Example 161, N-(3-(2-methoxyphenyl)propyl)-6-methyl-2-(trifluoromethyl) thieno[2,3-d]pyrimidin-4-amine] | 4.4 µM |
| Cc1cc2c(NCC#Cc3ccccc3)nc(C(F)(F)F)nc2s1 [Example 162, 6-methyl-N-(3-phenylprop-2-yn-1-yl)-2-(trifluoromethyl) thieno[2,3-d] pyrimidin-4-amine] | 6 µM |
| Cc1cc2c(NCC(O)Cc3ccccc3)nc(C(F)(F)F)nc2s1 (stereo not drawn) [Example 163, 1-((6-methyl-2-(trifluoromethyl)thieno[2,3-d]pyrimidin-4-yl)amino)-3-phenylpropan-2-ol] | > 10 µM |
| Cc1cc2c(NCCCn3cccc3)nc(C(F)(F)F)nc2s1 [Example 164, N-(3-(1H-pyrrol-1-yl)propyl)-6-methyl-2-(trifluoromethyl) thieno[2,3-d] pyrimidin-4-amine] | 1.7 µM |
| Cc1cc2c(NCCCN3CCCc4ccccc43)nc(C(F)(F)F)nc2s1 [Example 165, N-(3-(3,4-dihydroquinolin-1(2H)-yl)propyl)-6-methyl-2-(trifluoromethyl) thieno[2,3-d] pyrimidin-4-amine] | 2 µM |
| Cc1cc2c(NCCCc3ccccc3)nc(C(F)(F)F)nc2s1 [Example 166, 6-methyl-N-(3-phenylpropyl)-2-(trifluoromethyl) thieno[2,3-d] pyrimidin-4-amine] | < 0.51 µM |
| Cc1cc2c(N[C@@H]3C[C@H]3c3ccccc3)nc(C(F)(F)F)nc2s1 [Example 167, 6-methyl-N-((1R,2S)-2-phenylcyclopropyl)-2-(trifluoromethyl) thieno[2,3-d] pyrimidin-4-amine] | 0.49 µM |
| Cc1cc2c(N[C@H]3C[C@@H]3c3ccccc3)nc(C(F)(F)F)nc2s1 [Example 168, 6-methyl-N-((1S,2R)-2-phenylcyclopropyl)-2-(trifluoromethyl) thieno[2,3-d] pyrimidin-4-amine] | 3.2 µM |
| Cc1cc2c(NC(CCc3ccccc3)C(F)(F)F)nc(C(F)(F)F)nc2s1 (stereo not drawn) [Example 169, 6-methyl-N-(1,1,1-trifluoro-4-phenylbutan-2-yl)-2-(trifluoromethyl) thieno[2,3-d] pyrimidin-4-amine] | > 10 µM |
| CCc1nc(NCCC(c2ccccc2)c2ccccc2)c2cc(C)sc2n1 [Example 170, N-(3,3-diphenylpropyl)-2-ethyl-6-methylthieno[2,3-d]pyrimidin-4-amine] | 0.36 µM |
| Cc1cc2c(NCCC(O)c3ccccc3)nc(C(F)(F)F)nc2s1 (stereo not drawn) [Example 171, 3-((6-methyl-2-(trifluoromethyl)thieno [2,3-d]pyrimidin-4-yl)amino)-1-phenylpropan-1-ol] | > 9.5 µM |
| Cc1cc2c(NCCCN(C)c3ccccc3)nc(C(F)(F)F)nc2s1 [Example 172, N1-methyl-N3-(6-methyl-2-(trifluoromethyl)thieno[2,3-d]pyrimidin-4-yl)-N1-phenylpropane-1,3-diamine] | 4.2 µM |
| Cc1cc2c(NCCCNc3ccccc3)nc(C(F)(F)F)nc2s1 [Example 173, N1-(6-methyl-2-(trifluoromethyl)thieno[2,3-d]pyrimidin-4-yl)-N3-phenylpropane-1,3-diamine] | 3.3 µM |
| Cc1cc2c(NCCCn3ccc4ccccc43)nc(C(F)(F)F)nc2s1 [Example 177, N-(3-(1H-indol-1-yl)propyl)-6-methyl-2-(trifluoromethyl) thieno[2,3-d] pyrimidin-4-amine] | 4.7 µM |
| Cc1cc2c(NCCCc3ccc(N(C)C)cc3)nc(C(F)(F)F)nc2s1 [Example 178, N-(3-(4-(dimethylamino)phenyl)propyl)-6-methyl-2-(trifluoromethyl) thieno[2,3-d] pyrimidin-4-amine] | 1.3 µM |
| Cc1cc2c(NCCCc3cccc(C(F)(F)F)c3)nc(C(F)(F)F)nc2s1 [Example 179, 6-methyl-2-(trifluoromethyl)-N-(3-(3-(trifluoromethyl)phenyl)propyl) thieno[2,3-d] pyrimidin-4-amine] | 1.7 µM |
| Cc1cc2c(NCCc3ccc4ccccc4n3)nc(C(F)(F)F)nc2s1 [Example 180, 6-methyl-N-(2-(quinolin-2-yl)ethyl)-2-(trifluoromethyl) thieno[2,3-d] pyrimidin-4-amine] | > 10 µM |
| Cc1cc2c(N[C@@H]3C[C@H]3c3ccc(F)cc3)nc(C(F)(F)F)nc2s1 [Example 181, N-((1R,2S)-2-(4-fluorophenyl)cyclopropyl)-6-methyl-2-(trifluoromethyl) thieno[2,3-d] pyrimidin-4-amine] | 1.3 µM |
| Cc1cc2c(NCCC(=O)Nc3ccccc3)nc(C(F)(F)F)nc2s1 [Example 182, 3-((6-methyl-2-(trifluoromethyl)thieno[2,3-d]pyrimidin-4-yl)amino)-N-phenylpropanamide] | > 10 µM |
| Cc1cc2c(NCCn3cccc3)nc(C(F)(F)F)nc2s1 [Example 183, N-(2-(1H-pyrrol-1-yl)ethyl)-6-methyl-2-(trifluoromethyl) thieno[2,3-d]pyrimidin-4-amine] | > 10 µM |
| Cc1cc2c(NCCCc3ccc(O)cc3)nc(C(F)(F)F)nc2s1 [Example 184, 4-(3-((6-methyl-2-(trifluoromethyl)thieno[2,3-d]pyrimidin-4-yl)amino)propyl) phenol] | > 10 µM |

| Structure (SMILES) | IC50 |
| --- | --- |
| Cc1cc2c(NCCCc3ccc(F)cc3)nc(C(F)(F)F)nc2s1 [Example 185, N-(3-(4-fluorophenyl)propyl)-6-methyl-2-(trifluoromethyl) thieno[2,3-d] pyrimidin-4-amine] | 2.3 µM |
| Cc1cc2c(NCC(C)(C)Cc3ccccc3)nc(C(F)(F)F)nc2s1 [Example 186, N-(2,2-dimethyl-3-phenylpropyl)-6-methyl-2-(trifluoromethyl) thieno[2,3-d] pyrimidin-4-amine] | > 10 µM |
| Cc1cc2c(NCCC(C)c3ccccc3)nc(C(F)(F)F)nc2s1 (stereo not drawn) [Example 187, 6-methyl-N-(3-phenylbutyl)-2-(trifluoromethyl) thieno[2,3-d] pyrimidin-4-amine] | 9.1 µM |
| Cc1cc2c(NCCCc3ccccc3F)nc(C(F)(F)F)nc2s1 [Example 188, N-(3-(2-fluorophenyl)propyl)-6-methyl-2-(trifluoromethyl) thieno[2,3-d] pyrimidin-4-amine] | 5.1 µM |
| CCc1nc(NCCCc2ccccc2OC)c2cc(C)sc2n1 [Example 189, 2-ethyl-N-(3-(2-methoxyphenyl)propyl)-6-methylthieno[2,3-d]pyrimidin-4-amine] | 2.8 µM |
| CCc1nc(NCCCc2cccc(C(F)(F)F)c2)c2cc(C)sc2n1 [Example 190, 2-ethyl-6-methyl-N-(3-(3-(trifluoromethyl)phenyl)propyl) thieno[2,3-d] pyrimidin-4-amine] | 0.55 µM |
| CCc1nc(NCCCc2ccc(F)cc2)c2cc(C)sc2n1 [Example 191, 2-ethyl-N-(3-(4-fluorophenyl)propyl)-6-methylthieno[2,3-d]pyrimidin-4-amine] | 0.36 µM |
| CCc1nc(NCCCN2CCCc3ccccc32)c2cc(C)sc2n1 [Example 192, N-(3-(3,4-dihydroquinolin-1(2H)-yl)propyl)-2-ethyl-6-methylthieno[2,3-d]pyrimidin-4-amine] | 0.93 µM |
| CCc1nc(NCC#Cc2ccccc2)c2cc(C)sc2n1 [Example 193, 2-ethyl-6-methyl-N-(3-phenylprop-2-yn-1-yl)thieno[2,3-d]pyrimidin-4-amine] | 1.8 µM |
| CCc1nc(NCC(O)Cc2ccccc2)c2cc(C)sc2n1 (stereo not drawn) [Example 194, 1-((2-ethyl-6-methylthieno[2,3-d]pyrimidin-4-yl)amino)-3-phenylpropan-2-ol] | > 10 µM |
| CCc1nc(NCCCN(C)c2ccccc2)c2cc(C)sc2n1 [Example 195, N1-(2-ethyl-6-methylthieno[2,3-d]pyrimidin-4-yl)-N3-methyl-N3-phenylpropane-1,3-diamine] | 0.68 µM |
| CCc1nc(NCCCn2ccc3ccccc32)c2cc(C)sc2n1 [Example 196, N-(3-(1H-indol-1-yl)propyl)-2-ethyl-6-methylthieno[2,3-d]pyrimidin-4-amine] | 0.45 µM |
| CCc1nc(NCCCn2cccn2)c2cc(C)sc2n1 [Example 197, N-(3-(1H-pyrazol-1-yl)propyl)-2-ethyl-6-methylthieno[2,3-d]pyrimidin-4-amine] | 8.2 µM |
| CCc1nc(NCCCc2cccc3ccccc23)c2cc(C)sc2n1 [Example 198, 2-ethyl-6-methyl-N-(3-(naphthalen-1-yl)propyl)thieno[2,3-d]pyrimidin-4-amine] | 0.17 µM |
| CCc1nc(NCCCc2ccc(Br)cc2)c2cc(C)sc2n1 [Example 199, N-(3-(4-bromophenyl)propyl)-2-ethyl-6-methylthieno[2,3-d]pyrimidin-4-amine] | 0.12 µM |
| CCc1nc(NCCCc2ccccc2F)c2cc(C)sc2n1 [Example 200, 2-ethyl-N-(3-(2-fluorophenyl)propyl)-6-methylthieno[2,3-d]pyrimidin-4-amine] | 0.65 µM |
| CCc1nc(NCCCc2ccc(Oc3ccccc3)cc2)c2cc(C)sc2n1 [Example 201, 2-ethyl-6-methyl-N-(3-(4-phenoxyphenyl)propyl)thieno[2,3-d]pyrimidin-4-amine] | 0.61 µM |
| CCc1nc(NCCCc2cccc(Br)c2)c2cc(C)sc2n1 [Example 202, N-(3-(3-bromophenyl)propyl)-2-ethyl-6-methylthieno[2,3-d]pyrimidin-4-amine] | 0.26 µM |
| CCc1nc(NCCCc2ccc(C(C)(C)C)cc2)c2cc(C)sc2n1 [Example 203, N-(3-(4-(tert-butyl)phenyl)propyl)-2-ethyl-6-methylthieno[2,3-d]pyrimidin-4-amine] | 0.089 µM |
| Cc1cc2c(NCCCc3ccc(Br)cc3)nc(C(F)(F)F)nc2s1 [Example 204, N-(3-(4-bromophenyl)propyl)-6-methyl-2-(trifluoromethyl) thieno[2,3-d] pyrimidin-4-amine] | 1.9 µM |
| Cc1cc2c(NCCCc3cccc4ccccc34)nc(C(F)(F)F)nc2s1 [Example 205, 6-methyl-N-(3-(naphthalen-1-yl)propyl)-2-(trifluoromethyl) thieno[2,3-d] pyrimidin-4-amine] | 1.2 µM |
